One block for each substance: values may come before it.
Tests used:
B16F10 Melonoma Cells = test: Lung tumor formation after tail vein injection of B16F10 melanoma cells with peptide; type: in vivo, mice; conditions: for Number of Tumors/animal: lung surface tumors after 3 weeks, no peptide: 26
Description: It is well known that tumor cells must attach degrade, and migrate through basement membranes in order to spread to distant sites. Laminin is known to increase the metastic phenotype of tumor cells and the number of tumors formed in mice. Using a line of B16 melanoma cells which specifically colonize the lung when injected into mouse tail vein, we have studied the effect of peptide PA22-2 on the formation of lung tumors.
In these studies, various amounts of peptide PA22-2 are mixed with the B16F10 melanoma cells (5×10^4) and injected into mice via the tail vein. Eight mice are injected for each concentration of test peptide. After 2-3 weeks, the mice are sacrificed and the number of […] colonies on the lung surface are counted.
10^5 melanoma cells in a final volume of 0.2 ml of Dulbecco's
modification of Eagle's medium (DMEM) containing the indicated amount and
type of peptide were injected in the tail vein. Eight mice were in each
test group. After 3 weeks, the mice were sacrificed, lungs were removed.
The number of tumors on the surface of the lungs was determined by using
Each group contained 8 mice which were injected with […] B16F10 Melanoma cells via the tail vein in a final volume of 0.2 DMEM containing the designated amount of peptide. After three weeks, the animals were sacrificed and the number of colonies on the surface of the lungs was determined.

[1] = test system: laminin-mediated cell adhesion; test: Blocking of laminin-mediated cell attachment by soluble peptide; type: cell-based; conditions: laminin coated dish; peptide added with cells; one and a half hours
Protocol: Laminin was coated on the dish as described above, then peptide togehter with cells were added to the dishes and cell adhesion after one and a half hours was determined.

[2] = test system: HT-1080 fibrosarcoma cells; test: Collagenase production (collagen IV degrading enzymes in conditioned medium); type: cell-based; conditions: HT-1080 cells treated for 6 hours
Protocol: This enzyme is thought to be important in cancer where its production is correlated with the invasive and metastatic activity of malignant tumor cells. In fact, degradation of basement membranes by collagenase IV is a necessary step in the metastatic process. […] The cells were treated for 6 hours with various amounts of the peptide and then the conditional medium was assayed for the production of collagen IV degrading enzymes. The effect is dose-dependent and is not reproduced by any other peptide tested to date. The importance of localizing this activity to peptide PA22-2 is that it will now be possible to more precisely define the molecular events involved in the metastatic process. Competitive inhibitors of this activity can be readily designed by modification of the composition of the active peptide i.e. Dasmano acids, cyclic forms etc. There may also be situations where the production of the enzyme could be advantageous such as in speeding the migration of leukocytes to sites of infection.

[3] = test system: neural cell lines (PC-12, NG108-15) and primary cultures of neural cells; test: Neurite outgrowth / process formation on coated peptide; type: cell-based; conditions: peptide coated on plastic dish
Protocol: In fact, laminin promotes regeneration faster and over greater distances than any other factor described to date. […] It is active in a dose-dependent manner and is active both with neural cell lines (PC-12 FIGS. 17A and B and NG108-15) and with primary cultures of neural cells both from the peripheral and the central nervous system. The processes formed appear identical to those observed with intact laminin (see FIG. 17A).
The assay was carried out in a similar manner to the cell adhesion assay. 17A: Morphology after 4 hours. 17B: Dose response curve showing number of processes formed. Cells were directly counted from at least 10 microscopic fields.

various cells = test: Cell attachment to peptide coated on plastic; type: cell-based
Protocol: (§1) A further aspect of the invention provides synthetic peptides from the deduced amino acid sequence of the cDNA sequence for the A chain. These synthetic peptides can be synthesized by any suitable method such as one previously used by our group (Graf et al (1987) Cell 48:989). A variety of synthetic peptides are tested for biological activity such as promoting cell adhesion, migration, growth and preventing invasion of tumor cells (see locations and sequences of the active peptides in FIG. 14 and Table III). […] A: increasing amounts of peptide were coated onto a 24 well dish in DMEM for 2 hours. The unbound peptide was removed and the wells were incubated with DMEM containing 3% BSA before the addition of cells. B and C: Morphological appearance of cells attached on peptide and laminin substrates. In the absence of peptides or laminin, few cells were attached. Table III is shown below.
(§2) This peptide is active with various cells and its activity can be equal to that of laminin itself in terms of the total number of cells that can attach to surfaces coated with the peptide. […] Table IV is shown below.

[4] = test system: Human umbilical vein endothelial cells; test: Endothelial cell tube formation on reconstituted basement membrane; type: cell-based
Protocol: Human umbilical vein endothelial cells when coated on a reconstituted basement membrane substrate rapidly (by 12 hours) organize into capillary-like structures (see FIG. 18A). […] It may have a potential clinical use in blocking blood vessel formation as for example, during the vascularization of tumors and in diabetic retinopathy (ex diabetic retinopathy or Kaposi sarcoma). […] 18A: Morphology of cells. Cells were plated on a reconstituted basement membrane substrate and after 2 and 18 hours it is apparent that the cells line up into capillary-like structures. […] 18B: Adhesion to peptides. 18C: peptide inhibition of tube formation.

HT1080 (fibrosarcoma) = test: Cell attachment and spreading on coated dish (Table IV); type: cell-based; conditions: HT-1080
Protocol: as §1, §2

B16F10 (melanoma) = test: as above; type: cell-based
Protocol: as §1, §2

cell migration = test: Cell migration; type: cell-based
B16-F10 and PC12 cells = test: Cell growth; type: cell-based
[5] = test system: cells in culture and tumor cells in vivo; test: Various biological activities with cells in culture and tumor cells in vivo (comparison of derivatives); conditions: all presently found activities
[6] = test system: HT-1080 fibrosarcoma cells; conditions: background statement; cited from earlier work
[7] = test system: neural cell lines (PC-12, NG108-15) and primary cultures of neural cells; conditions: background statement; cited from earlier work
EGF-like activity = conditions: personal communication; cited from earlier work
[8] = test system: endothelial cell binding to laminin; test: Competition with intact laminin for endothelial cell binding; type: cell-based; conditions: endothelial cells
Description: Many of the same cells which recognize peptide PA22-2 and YIGSR also recognize and bind to PA21 and PA26 but the degree of binding is quite different. […] Since the sequence of PA36 is unique to laminin, the response of endothelial cells to PA36 is likely to be specific to the peptide.

HUVEC (endothelia cell) = test: Cell attachment and spreading on coated dish (Table IV); type: cell-based, Human; conditions: endothelial cells
Protocol: as §1, §2

Heparin binding (Heparin binding): promote activity to bind heparin
Substance: XSRARQAASIKVAVSADR [PA22-2]
Number of Tumors/animal (B16F10 Melonoma Cells; 0.5 mg peptide injected with melanoma cells in tail vein): 44
Number of Tumors/animal (B16F10 Melonoma Cells; 1 mg peptide injected with melanoma cells in tail vein): 53
Increase in the number of lung tumors (B16F10 Melonoma Cells; 1 mg/mouse): two-fold increase
Blocking of laminin-mediated cell adhesion [1]: can complete (i.e. block) laminin-mediated cell adhesion
Production of collagenase [2]: increase in the production of collagenase to levels comparable to those observed with intact laminin
Neurite outgrowth promoting activity [3]: mimics the neurite promoting activity of laminin
Cell adhesion / attachment to coated peptide (various cells): promotes the adhesion of various epithelial cells in a rapid dose-dependent manner
Adhesion of HUVEC [4]: does not alter the adhesion of these cells
Formation of capillary-like structures (tube formation) ([4]; HUVEC on reconstituted basement membrane): block the formation of capillary-like structures
Spreading on substrates coated with the peptide (HT1080 (fibrosarcoma)): spreading is not observed
Spreading on substrates coated with the peptide (B16F10 (melanoma)): spreading is observed
Cell migration (cell migration): active
Cell growth (B16-F10 and PC12 cells): stimulate growth

Substance: XFALRGDNPQG [PA26]
Cell adhesion / attachment to coated peptide (various cells): support the attachment of many cells

Substance: XRKQAASIKVAVS [PA22-3]
Activity relative to PA22-2 [5]: almost equally active

Substance: XGQIKKSPAVKVT [pA31-2]
Cell adhesion / attachment to coated peptide (various cells): has some cell attachment activity

Substance: XGQIKKSPAVKVTHFKG [pA31-1]
Cell adhesion / attachment to coated peptide (various cells): active for cell attachment

Substance: Laminin: large glycoprotein localized to basement membranes, composed of three chains A, B1 and B2; prepared from EHS tumor
Collagenase production / release (background) [6]: induces the production of collagenase IV
Neurite outgrowth promoting activity (background) [7]: very active in promoting neurite outgrowth
EGF-like activity (EGF-like activity): exert EGF-like growth factor activity

Substance: CSKCQAGTFALR [PA36]
Competition with intact laminin for endothelial cell binding to laminin [8]: effectively competes with intact laminin for endothelial cell binding to laminin
Endothelial cell adhesion to peptide (HUVEC (endothelia cell)): specifically active with endothelial cells for cell adhesion

Substance: XIKVAVSADR [PA22-4]
Activity relative to PA22-2 [5]: almost equally active
